# From ChEMBL document CHEMBL1671627, “Increasing trends in antimicrobial resistance among clinically important anaerobes and Bacteroides fragilis isolates causing nosocomial infections: emerging resistance to carbapenems” (2008)
# Tests used:
# Parvimonas micra [1] = assay: Antibacterial activity against beta-lactamase producing Micromonas micros by CLSI agar dilution method; format: functional
# Prevotella bivia [2] = assay: Antibacterial activity against Prevotella bivia assessed as susceptible isolates by CLSI agar dilution method; format: functional
# Parvimonas micra [3] = assay: Antibacterial activity against beta-lactamase producing Micromonas micros assessed as susceptible isolates by CLSI agar dilution method; format: functional
# [4] = system: Prevotella melaninogenica; assay: Antibacterial activity against Prevotella melaninogenica assessed as resistant isolates by CLSI agar dilution method; format: functional
# Bacteroides fragilis [5] = assay: Antibacterial activity against Bacteroides fragilis assessed as susceptible isolates by CLSI agar dilution method; format: functional
# Fusobacterium varium [6] = assay: Antibacterial activity against Fusobacterium varium by CLSI agar dilution method; format: functional
# Bacteroides fragilis [7] = assay: Antibacterial activity against Bacteroides fragilis assessed as resistant isolates by CLSI agar dilution method; format: functional
# Clostridium septicum [8] = assay: Antibacterial activity against beta-lactamase producing Clostridium septicum assessed as resistant isolates by CLSI agar dilution method; format: functional
# [9] = system: Clostridium paraputrificum; assay: Antibacterial activity against beta-lactamase producing Clostridium paraputrificum assessed as susceptible isolates by CLSI agar dilution method; format: functional
# [10] = system: Peptoniphilus asaccharolyticus; assay: Antibacterial activity against beta-lactamase producing Peptoniphilus asaccharolyticus by CLSI agar dilution method; format: functional
# Clostridium septicum [11] = assay: Antibacterial activity against beta-lactamase producing Clostridium septicum assessed as susceptible isolates by CLSI agar dilution method; format: functional
# Clostridium tertium [12] = assay: Antibacterial activity against beta-lactamase producing Clostridium tertium assessed as resistant isolates by CLSI agar dilution method; format: functional
# [13] = system: Clostridium paraputrificum; assay: Antibacterial activity against beta-lactamase producing Clostridium paraputrificum by CLSI agar dilution method; format: functional
# Fusobacterium mortiferum [14] = assay: Antibacterial activity against Fusobacterium mortiferum by CLSI agar dilution method; format: functional
# [15] = system: Peptostreptococcus anaerobius; assay: Antibacterial activity against beta-lactamase producing Peptostreptococcus anaerobius by CLSI agar dilution method; format: functional
# Bacteroides fragilis [16] = assay: Antibacterial activity against Bacteroides fragilis by CLSI agar dilution method; format: functional
# Finegoldia magna [17] = assay: Antibacterial activity against beta-lactamase producing Finegoldia magna assessed as resistant isolates by CLSI agar dilution method; format: functional
# Clostridium tertium [18] = assay: Antibacterial activity against beta-lactamase producing Clostridium tertium assessed as susceptible isolates by CLSI agar dilution method; format: functional
# [19] = system: Bacteroides thetaiotaomicron; assay: Antibacterial activity against beta-lactamase producing Bacteroides thetaiotaomicron by CLSI agar dilution method; format: functional
# [20] = system: Peptoniphilus asaccharolyticus; assay: Antibacterial activity against beta-lactamase producing Peptoniphilus asaccharolyticus assessed as resistant isolates by CLSI agar dilution method; format: functional
# [21] = system: Peptostreptococcus anaerobius; assay: Antibacterial activity against beta-lactamase producing Peptostreptococcus anaerobius assessed as resistant isolates by CLSI agar dilution method; format: functional
# Parvimonas micra [22] = assay: Antibacterial activity against beta-lactamase producing Micromonas micros assessed as resistant isolates by CLSI agar dilution method; format: functional
# [23] = system: Prevotella melaninogenica; assay: Antibacterial activity against Prevotella melaninogenica assessed as susceptible isolates by CLSI agar dilution method; format: functional
# [24] = system: Peptostreptococcus anaerobius; assay: Antibacterial activity against beta-lactamase producing Peptostreptococcus anaerobius assessed as susceptible isolates by CLSI agar dilution method; format: functional
# Clostridium perfringens = assay: microbe, parasite or virus in culture; format: functional
# Bacteroides caccae [25] = assay: Antibacterial activity against beta-lactamase producing Bacteroides caccae assessed as resistant isolates by CLSI agar dilution method; format: functional
# Prevotella intermedia [26] = assay: Antibacterial activity against Prevotella intermedia assessed as susceptible isolates by CLSI agar dilution method; format: functional
# Prevotella buccae [27] = assay: Antibacterial activity against Prevotella buccae assessed as susceptible isolates by CLSI agar dilution method; format: functional, Segatella buccae
# Bacteroides uniformis [28] = assay: Antibacterial activity against beta-lactamase producing Bacteroides uniformis assessed as susceptible isolates by CLSI agar dilution method; format: functional
# Bacteroides uniformis [29] = assay: Antibacterial activity against beta-lactamase producing Bacteroides uniformis assessed as resistant isolates by CLSI agar dilution method; format: functional
# [30] = system: Fusobacterium necrophorum; assay: Antibacterial activity against Fusobacterium necrophorum assessed as susceptible isolates by CLSI agar dilution method; format: functional
# Prevotella buccae [31] = assay: Antibacterial activity against Prevotella buccae by CLSI agar dilution method; format: functional; details: Segatella buccae
# Bacteroides uniformis [32] = assay: Antibacterial activity against beta-lactamase producing Bacteroides uniformis by CLSI agar dilution method; format: functional
# Fusobacterium mortiferum [33] = assay: Antibacterial activity against Fusobacterium mortiferum assessed as susceptible isolates by CLSI agar dilution method; format: functional
# [34] = system: Fusobacterium necrophorum; assay: Antibacterial activity against Fusobacterium necrophorum by CLSI agar dilution method; format: functional
# Prevotella bivia [35] = assay: Antibacterial activity against Prevotella bivia by CLSI agar dilution method; format: functional
# Fusobacterium nucleatum [36] = assay: Antibacterial activity against Fusobacterium nucleatum by CLSI agar dilution method; format: functional
# Phocaeicola vulgatus [37] = assay: Antibacterial activity against beta-lactamase producing Bacteroides vulgatus assessed as resistant isolates by CLSI agar dilution method; format: functional
# Bacteroides caccae [38] = assay: Antibacterial activity against beta-lactamase producing Bacteroides caccae by CLSI agar dilution method; format: functional
# Finegoldia magna [39] = assay: Antibacterial activity against beta-lactamase producing Finegoldia magna assessed as susceptible isolates by CLSI agar dilution method; format: functional
# Clostridium tertium [40] = assay: Antibacterial activity against beta-lactamase producing Clostridium tertium by CLSI agar dilution method; format: functional
# Finegoldia magna [41] = assay: Antibacterial activity against beta-lactamase producing Finegoldia magna by CLSI agar dilution method; format: functional
# Fusobacterium nucleatum [42] = assay: Antibacterial activity against Fusobacterium nucleatum assessed as resistant isolates by CLSI agar dilution method; format: functional
# Fusobacterium mortiferum [43] = assay: Antibacterial activity against Fusobacterium mortiferum assessed as resistant isolates by CLSI agar dilution method; format: functional
# Fusobacterium nucleatum [44] = assay: Antibacterial activity against Fusobacterium nucleatum assessed as susceptible isolates by CLSI agar dilution method; format: functional
# [45] = system: Bacteroides thetaiotaomicron; assay: Antibacterial activity against beta-lactamase producing Bacteroides thetaiotaomicron assessed as susceptible isolates by CLSI agar dilution method; format: functional
# Fusobacterium varium [46] = assay: Antibacterial activity against Fusobacterium varium assessed as resistant isolates by CLSI agar dilution method; format: functional
# [47] = system: Prevotella melaninogenica; assay: Antibacterial activity against Prevotella melaninogenica by CLSI agar dilution method; format: functional
# Phocaeicola vulgatus [48] = assay: Antibacterial activity against beta-lactamase producing Bacteroides vulgatus assessed as susceptible isolates by CLSI agar dilution method; format: functional
# Phocaeicola vulgatus [49] = assay: Antibacterial activity against beta-lactamase producing Bacteroides vulgatus by CLSI agar dilution method; format: functional
# [50] = system: Fusobacterium necrophorum; assay: Antibacterial activity against Fusobacterium necrophorum assessed as resistant isolates by CLSI agar dilution method; format: functional
# Clostridium septicum [51] = assay: Antibacterial activity against beta-lactamase producing Clostridium septicum by CLSI agar dilution method; format: functional
# Prevotella bivia [52] = assay: Antibacterial activity against Prevotella bivia assessed as resistant isolates by CLSI agar dilution method; format: functional
# [53] = system: Clostridium paraputrificum; assay: Antibacterial activity against beta-lactamase producing Clostridium paraputrificum assessed as resistant isolates by CLSI agar dilution method; format: functional
# Bacteroides caccae [54] = assay: Antibacterial activity against beta-lactamase producing Bacteroides caccae assessed as susceptible isolates by CLSI agar dilution method; format: functional
# Prevotella buccae [55] = assay: Antibacterial activity against Prevotella buccae assessed as resistant isolates by CLSI agar dilution method; format: functional, Segatella buccae
# Fusobacterium varium [56] = assay: Antibacterial activity against Fusobacterium varium assessed as susceptible isolates by CLSI agar dilution method; format: functional
# [57] = system: Peptoniphilus asaccharolyticus; assay: Antibacterial activity against beta-lactamase producing Peptoniphilus asaccharolyticus assessed as susceptible isolates by CLSI agar dilution method; format: functional
# Prevotella intermedia [58] = assay: Antibacterial activity against Prevotella intermedia by CLSI agar dilution method; format: functional
# Prevotella intermedia [59] = assay: Antibacterial activity against Prevotella intermedia assessed as resistant isolates by CLSI agar dilution method; format: functional
# [60] = system: Bacteroides thetaiotaomicron; assay: Antibacterial activity against beta-lactamase producing Bacteroides thetaiotaomicron assessed as resistant isolates by CLSI agar dilution method; format: functional
# Veillonella parvula = assay: Antibacterial activity against Veillonella parvula by CLSI agar dilution method; format: functional
smiles,measurement,setting,value
C[C@@H](O)[C@H]1C(=O)N2C(C(=O)O)=C(SCCNC=N)C[C@H]12 [IMIPENEM ANHYDROUS],MIC50,Parvimonas micra [1],0.06 µg/mL
same,MIC90,Parvimonas micra [1],0.5 µg/mL
same,Activity,Prevotella bivia [2],94%
same,Activity,Parvimonas micra [3],100%
same,Activity,[4],6%
same,Activity,Bacteroides fragilis [5],93%
same,MIC,Fusobacterium varium [6],0.01 µg/mL
same,MIC50,Fusobacterium varium [6],0.5 µg/mL
same,MIC90,Fusobacterium varium [6],4 µg/mL
same,Activity,Bacteroides fragilis [7],3%
same,Activity,Clostridium septicum [8],4%
same,Activity,[9],85%
same,MIC50,[10],0.06 µg/mL
same,MIC90,[10],0.5 µg/mL
same,Activity,Clostridium septicum [11],85%
same,Activity,Clostridium tertium [12],4%
same,MIC50,[13],0.25 µg/mL
same,MIC90,[13],8 µg/mL
same,MIC,Fusobacterium mortiferum [14],0.01 µg/mL
same,MIC50,Fusobacterium mortiferum [14],0.5 µg/mL
same,MIC90,Fusobacterium mortiferum [14],4 µg/mL
same,MIC50,[15],0.06 µg/mL
same,MIC90,[15],0.5 µg/mL
same,MIC50,Bacteroides fragilis [16],0.5 µg/mL
same,MIC90,Bacteroides fragilis [16],4 µg/mL
same,Activity,Finegoldia magna [17],0%
same,Activity,Clostridium tertium [18],85%
same,MIC50,[19],0.5 µg/mL
same,MIC90,[19],4 µg/mL
same,Activity,[20],0%
same,Activity,[21],0%
same,Activity,Parvimonas micra [22],0%
same,Activity,[23],94%
same,Activity,[24],100%
same,MIC50,Clostridium perfringens,0.25 µg/mL
same,MIC90,Clostridium perfringens,8 µg/mL
same,Activity,Bacteroides caccae [25],4%
same,Activity,Prevotella intermedia [26],94%
same,Activity,Prevotella buccae [27],94%
same,Activity,Bacteroides uniformis [28],96%
same,Activity,Bacteroides uniformis [29],4%
same,Activity,[30],96%
same,MIC50,Prevotella buccae [31],0.25 µg/mL
same,MIC90,Prevotella buccae [31],0.5 µg/mL
same,MIC50,Bacteroides uniformis [32],1 µg/mL
same,MIC90,Bacteroides uniformis [32],4 µg/mL
same,Activity,Fusobacterium mortiferum [33],96%
same,MIC,[34],0.01 µg/mL
same,MIC50,[34],0.5 µg/mL
same,MIC90,[34],4 µg/mL
same,MIC50,Prevotella bivia [35],0.25 µg/mL
same,MIC90,Prevotella bivia [35],0.5 µg/mL
same,MIC,Fusobacterium nucleatum [36],0.01 µg/mL
same,MIC50,Fusobacterium nucleatum [36],0.5 µg/mL
same,MIC90,Fusobacterium nucleatum [36],4 µg/mL
same,Activity,Phocaeicola vulgatus [37],4%
same,MIC50,Bacteroides caccae [38],1 µg/mL
same,MIC90,Bacteroides caccae [38],4 µg/mL
same,Activity,Finegoldia magna [39],100%
same,MIC50,Clostridium tertium [40],0.25 µg/mL
same,MIC90,Clostridium tertium [40],8 µg/mL
same,MIC50,Finegoldia magna [41],0.06 µg/mL
same,MIC90,Finegoldia magna [41],0.5 µg/mL
same,Activity,Fusobacterium nucleatum [42],4%
same,Activity,Fusobacterium mortiferum [43],4%
same,Activity,Fusobacterium nucleatum [44],96%
same,Activity,[45],93%
same,Activity,Fusobacterium varium [46],4%
same,MIC50,[47],0.25 µg/mL
same,MIC90,[47],0.5 µg/mL
same,Activity,Phocaeicola vulgatus [48],96%
same,MIC50,Phocaeicola vulgatus [49],1 µg/mL
same,MIC90,Phocaeicola vulgatus [49],4 µg/mL
same,Activity,[50],4%
same,MIC50,Clostridium septicum [51],0.25 µg/mL
same,MIC90,Clostridium septicum [51],8 µg/mL
same,Activity,Prevotella bivia [52],6%
same,Activity,[53],4%
same,Activity,Bacteroides caccae [54],96%
same,Activity,Prevotella buccae [55],6%
same,Activity,Fusobacterium varium [56],96%
same,Activity,[57],100%
same,MIC50,Prevotella intermedia [58],0.25 µg/mL
same,MIC90,Prevotella intermedia [58],0.5 µg/mL
same,Activity,Prevotella intermedia [59],6%
same,Activity,[60],0%
same,MIC,Veillonella parvula,0.12 µg/mL
